Source: paper PMC10599993, “The PTPN2/PTPN1 inhibitor ABBV-CLS-484 unleashes potent anti-tumour immunity” (Nature, 2023)

Experiments:
Experiment in all cases: biochemical
Parameters in all cases: Kinase selectivity panel, IC50 of AC484 (Supplementary Table 1)
Pim1 = Pim1 (Homo sapiens, UniProt P11309)
MAP3K10 = MAP3K10 (Homo sapiens, UniProt Q02779)
PKG1A = target: T1, PKG1A (Homo sapiens, UniProt Q13976)
T1 construct: gene PRKG1; isoform 1 alpha

TBK1 = TBK1 (Homo sapiens, UniProt Q9UHD2)
GRK5 = GRK5 (Homo sapiens, UniProt P34947)
MERTK = MERTK (Homo sapiens, UniProt Q12866)
IRAK4 = IRAK4 (Homo sapiens, UniProt Q9NWZ3)
CAMK2A = CAMK2A (Homo sapiens, UniProt Q9UQM7)
ACVR1 = ACVR1 (Homo sapiens, UniProt Q04771)
Zipk = target: T2, Zipk (Homo sapiens, UniProt O43293)
T2 construct: gene DAPK3

STK16 = STK16 (Homo sapiens, UniProt O75716)
TAOK2 = TAOK2 (Homo sapiens, UniProt Q9UL54)
Lck = Lck (Homo sapiens, UniProt P06239)
IGF1R = IGF1R (Homo sapiens, UniProt P08069)
MST1 = target: T3, MST1 (Homo sapiens, UniProt Q13043)
T3 construct: gene STK4

DDR1 = DDR1 (Homo sapiens, UniProt Q08345)
CLK2 = CLK2 (Homo sapiens, UniProt P49760)
PDGFRB = PDGFRB (Homo sapiens, UniProt P09619)
CDK9/Cyclin K = CDK9/Cyclin K (Homo sapiens, UniProt P50750)
CDK8/Cyclin C = CDK8/Cyclin C (Homo sapiens, UniProt P49336)
CSK = CSK (Homo sapiens, UniProt P41240)
Src = Src (Homo sapiens, UniProt P12931)
TrkC = target: T4, TrkC (Homo sapiens, UniProt Q16288)
T4 construct: gene NTRK3

TAK1-TAB1 = target: T5, TAK1-TAB1 (Homo sapiens, UniProt O43318)
T5 construct: gene MAP3K7

ALK = ALK (Homo sapiens, UniProt Q9UM73)
Blk = Blk (Homo sapiens, UniProt P51451)
PKC alpha-UBI = target: T6, PKC alpha-UBI (Homo sapiens, UniProt P17252)
T6 construct: gene PRKCA

FAK = target: T7, FAK (Homo sapiens, UniProt Q05397)
T7 construct: gene PTK2

TEC = TEC (Homo sapiens, UniProt P42680)

Measured: IC50

Chain of CDK8/Cyclin C (P49336 whole entry): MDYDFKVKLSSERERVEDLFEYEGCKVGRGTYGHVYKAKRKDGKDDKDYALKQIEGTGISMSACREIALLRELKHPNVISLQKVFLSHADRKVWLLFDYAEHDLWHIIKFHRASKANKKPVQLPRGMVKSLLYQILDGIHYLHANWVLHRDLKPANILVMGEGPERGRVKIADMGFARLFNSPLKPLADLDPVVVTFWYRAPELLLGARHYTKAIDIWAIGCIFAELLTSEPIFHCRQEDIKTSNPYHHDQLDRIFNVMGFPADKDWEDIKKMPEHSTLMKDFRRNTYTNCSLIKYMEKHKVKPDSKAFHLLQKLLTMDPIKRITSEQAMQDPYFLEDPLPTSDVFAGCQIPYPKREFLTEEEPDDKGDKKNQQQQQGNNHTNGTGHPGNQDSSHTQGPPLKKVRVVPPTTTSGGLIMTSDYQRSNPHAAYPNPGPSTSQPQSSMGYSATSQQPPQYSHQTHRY
Chain of CDK8/Cyclin C (P24863 whole entry partner): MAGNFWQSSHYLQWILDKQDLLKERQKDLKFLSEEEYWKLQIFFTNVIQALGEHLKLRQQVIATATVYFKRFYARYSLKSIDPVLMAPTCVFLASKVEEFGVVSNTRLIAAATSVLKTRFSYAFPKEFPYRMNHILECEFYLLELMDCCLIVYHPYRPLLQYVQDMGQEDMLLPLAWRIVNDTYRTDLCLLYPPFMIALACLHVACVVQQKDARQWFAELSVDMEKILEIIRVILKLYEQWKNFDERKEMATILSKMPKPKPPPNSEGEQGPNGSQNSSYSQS
Chain of TEC (P42680 whole entry): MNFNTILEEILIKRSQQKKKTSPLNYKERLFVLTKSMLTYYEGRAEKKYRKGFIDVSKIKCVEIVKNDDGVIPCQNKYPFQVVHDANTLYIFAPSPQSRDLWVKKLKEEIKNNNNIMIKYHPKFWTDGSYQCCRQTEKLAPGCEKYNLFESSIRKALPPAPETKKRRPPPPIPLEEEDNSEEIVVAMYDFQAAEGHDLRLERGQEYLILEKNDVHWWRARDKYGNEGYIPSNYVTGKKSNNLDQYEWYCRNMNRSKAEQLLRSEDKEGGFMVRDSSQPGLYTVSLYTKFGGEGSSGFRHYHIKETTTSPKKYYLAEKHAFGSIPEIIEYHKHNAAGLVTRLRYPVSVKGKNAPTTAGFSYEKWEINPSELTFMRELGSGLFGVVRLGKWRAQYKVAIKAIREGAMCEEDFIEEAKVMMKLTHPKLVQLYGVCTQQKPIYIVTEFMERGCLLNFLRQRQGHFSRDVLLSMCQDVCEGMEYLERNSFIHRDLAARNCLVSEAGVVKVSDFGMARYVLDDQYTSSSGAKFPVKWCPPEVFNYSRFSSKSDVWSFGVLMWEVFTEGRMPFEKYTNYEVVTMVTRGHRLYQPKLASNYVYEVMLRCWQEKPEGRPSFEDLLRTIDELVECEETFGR
T4 sequence (Q16288 whole entry): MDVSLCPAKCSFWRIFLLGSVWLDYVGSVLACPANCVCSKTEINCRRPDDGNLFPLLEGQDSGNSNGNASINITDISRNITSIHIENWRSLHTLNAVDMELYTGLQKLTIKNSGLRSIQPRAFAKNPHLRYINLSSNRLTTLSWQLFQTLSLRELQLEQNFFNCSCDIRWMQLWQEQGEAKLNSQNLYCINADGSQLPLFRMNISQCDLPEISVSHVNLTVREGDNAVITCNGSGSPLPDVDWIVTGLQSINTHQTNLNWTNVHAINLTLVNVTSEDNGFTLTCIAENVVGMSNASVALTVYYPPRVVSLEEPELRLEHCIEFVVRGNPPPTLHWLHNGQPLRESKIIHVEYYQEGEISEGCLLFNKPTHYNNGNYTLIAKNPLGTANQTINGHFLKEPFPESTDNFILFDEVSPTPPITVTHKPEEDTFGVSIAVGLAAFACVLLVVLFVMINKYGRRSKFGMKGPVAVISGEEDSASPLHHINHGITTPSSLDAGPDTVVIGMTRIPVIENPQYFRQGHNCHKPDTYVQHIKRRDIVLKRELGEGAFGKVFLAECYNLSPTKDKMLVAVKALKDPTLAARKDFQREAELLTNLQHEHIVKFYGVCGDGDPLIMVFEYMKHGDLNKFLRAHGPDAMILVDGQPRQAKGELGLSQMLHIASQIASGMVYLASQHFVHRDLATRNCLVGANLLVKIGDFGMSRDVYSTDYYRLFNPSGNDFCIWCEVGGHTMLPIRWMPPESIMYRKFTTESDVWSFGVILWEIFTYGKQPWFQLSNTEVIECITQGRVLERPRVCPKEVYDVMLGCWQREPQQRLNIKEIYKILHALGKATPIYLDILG
Chain of Pim1 (P11309 whole entry): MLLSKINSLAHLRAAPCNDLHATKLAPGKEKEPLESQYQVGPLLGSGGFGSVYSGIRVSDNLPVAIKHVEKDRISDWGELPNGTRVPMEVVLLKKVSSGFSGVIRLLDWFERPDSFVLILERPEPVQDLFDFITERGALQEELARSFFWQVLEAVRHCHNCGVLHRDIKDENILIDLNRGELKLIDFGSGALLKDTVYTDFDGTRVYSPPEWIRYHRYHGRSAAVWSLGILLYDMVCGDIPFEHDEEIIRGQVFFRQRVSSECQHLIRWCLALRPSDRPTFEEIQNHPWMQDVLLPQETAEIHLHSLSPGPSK
Chain of CSK (P41240 whole entry): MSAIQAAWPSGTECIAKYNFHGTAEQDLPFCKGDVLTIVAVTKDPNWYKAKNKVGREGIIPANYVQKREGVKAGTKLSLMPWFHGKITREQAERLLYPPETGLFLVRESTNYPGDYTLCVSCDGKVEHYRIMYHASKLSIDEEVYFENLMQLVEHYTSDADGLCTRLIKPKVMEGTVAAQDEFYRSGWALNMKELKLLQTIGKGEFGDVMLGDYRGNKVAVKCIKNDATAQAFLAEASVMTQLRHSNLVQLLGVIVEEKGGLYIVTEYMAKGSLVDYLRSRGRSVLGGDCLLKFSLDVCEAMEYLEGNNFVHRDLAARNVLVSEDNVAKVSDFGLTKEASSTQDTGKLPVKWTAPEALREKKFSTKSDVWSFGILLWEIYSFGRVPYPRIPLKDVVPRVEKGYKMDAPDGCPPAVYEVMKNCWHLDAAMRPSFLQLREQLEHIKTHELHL
Chain of TBK1 (Q9UHD2 whole entry): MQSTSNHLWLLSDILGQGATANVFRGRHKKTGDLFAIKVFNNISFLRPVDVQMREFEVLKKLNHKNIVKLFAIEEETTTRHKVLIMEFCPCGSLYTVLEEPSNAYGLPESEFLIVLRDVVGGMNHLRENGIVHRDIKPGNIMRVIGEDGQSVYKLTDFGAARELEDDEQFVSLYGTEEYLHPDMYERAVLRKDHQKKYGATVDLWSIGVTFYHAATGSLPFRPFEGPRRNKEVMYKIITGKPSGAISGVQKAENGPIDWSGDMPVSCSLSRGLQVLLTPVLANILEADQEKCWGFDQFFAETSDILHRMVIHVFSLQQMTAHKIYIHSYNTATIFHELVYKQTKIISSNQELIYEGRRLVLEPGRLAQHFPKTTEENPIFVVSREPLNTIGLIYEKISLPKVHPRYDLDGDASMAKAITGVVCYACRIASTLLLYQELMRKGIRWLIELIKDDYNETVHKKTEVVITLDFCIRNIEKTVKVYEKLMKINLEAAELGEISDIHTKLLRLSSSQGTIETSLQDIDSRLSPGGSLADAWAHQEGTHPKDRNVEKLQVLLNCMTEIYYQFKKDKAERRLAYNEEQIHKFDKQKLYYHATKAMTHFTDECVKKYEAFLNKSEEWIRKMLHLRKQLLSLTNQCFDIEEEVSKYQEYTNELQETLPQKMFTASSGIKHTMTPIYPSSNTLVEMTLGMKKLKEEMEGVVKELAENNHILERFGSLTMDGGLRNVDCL
Chain of Lck (P06239 whole entry): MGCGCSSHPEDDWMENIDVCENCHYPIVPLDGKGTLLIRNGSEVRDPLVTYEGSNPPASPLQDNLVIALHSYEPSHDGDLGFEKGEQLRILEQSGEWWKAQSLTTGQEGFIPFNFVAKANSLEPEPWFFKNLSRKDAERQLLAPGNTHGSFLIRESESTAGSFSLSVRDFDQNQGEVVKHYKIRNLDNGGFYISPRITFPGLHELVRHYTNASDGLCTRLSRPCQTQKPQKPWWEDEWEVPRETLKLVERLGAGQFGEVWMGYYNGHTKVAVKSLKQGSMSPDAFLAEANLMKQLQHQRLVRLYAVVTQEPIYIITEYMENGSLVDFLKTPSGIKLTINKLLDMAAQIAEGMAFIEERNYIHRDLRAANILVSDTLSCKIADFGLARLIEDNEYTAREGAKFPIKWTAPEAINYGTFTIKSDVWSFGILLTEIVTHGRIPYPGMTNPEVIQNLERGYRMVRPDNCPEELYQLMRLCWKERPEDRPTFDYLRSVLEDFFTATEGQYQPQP

CC(C)CCN[C@@H]1CCc2cc(O)c(N3CC(=O)NS3(=O)=O)c(F)c2C1 [AC484, ABBV-CLS-484]
> 10 µM: all assays above
